Reference: BindingDB's records for doi:10.1016/0960-894X(95)00162-M (1995)

Biological target: Beta-lactamase TEM (Escherichia coli) (UniProt P62593)
Experiment: Kd for TEM-1 beta-lactamase

Sequence of Beta-lactamase TEM (Escherichia coli) (P62593 whole entry, looked up): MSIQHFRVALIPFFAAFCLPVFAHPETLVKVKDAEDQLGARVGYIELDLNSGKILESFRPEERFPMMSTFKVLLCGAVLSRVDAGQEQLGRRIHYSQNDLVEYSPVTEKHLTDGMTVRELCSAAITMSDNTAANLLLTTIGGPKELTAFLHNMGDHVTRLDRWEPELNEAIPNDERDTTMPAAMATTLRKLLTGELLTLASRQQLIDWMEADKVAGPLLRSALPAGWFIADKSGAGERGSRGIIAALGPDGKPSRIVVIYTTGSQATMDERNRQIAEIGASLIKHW

Compound: C/C=C1\O[C@@H]2CC(=O)N2[C@H]1C(=O)O [Sodium; (2R,5R)-3-eth-(Z)-ylidene-7-oxo-4-oxa-1-aza-bicyclo[3.2.0]heptane-2-carboxylate]
- Kd: 800 nM
